This note sets out measurements from BindingDB's records for doi:10.1021/jm0305523 (Merck Research Laboratories, 2004).

pIC50: −log10 of the molar value.

In this assay the target is T1, Caspase-3 (Homo sapiens, UniProt P42574).
T1 sequence (P42574 whole entry): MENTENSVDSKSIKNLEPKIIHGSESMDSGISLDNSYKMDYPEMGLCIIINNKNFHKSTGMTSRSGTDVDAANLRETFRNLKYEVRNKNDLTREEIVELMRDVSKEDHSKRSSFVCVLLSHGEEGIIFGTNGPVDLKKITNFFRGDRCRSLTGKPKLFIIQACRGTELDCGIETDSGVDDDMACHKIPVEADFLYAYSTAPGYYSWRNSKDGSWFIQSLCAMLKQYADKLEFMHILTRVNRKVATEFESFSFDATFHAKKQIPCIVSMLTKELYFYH
The assay can be described thus: Caspase Inhibition Assay. As to conditions: pH 7; 37 °C.

By pIC50 is commonly meant −log10 of the IC50, conventionally taken in molar units. The low end stands for a large IC50, the high end for a small IC50. With `CC(=O)N[C@@H](CC(=O)O)C(=O)N[C@H]1CCc2cccc3c2N(C1=O)[C@H](C(=O)N[C@@H](CC(=O)O)C(=O)CSCc1ccccc1)C3` [(3S)-5-(benzylsulfanyl)-3-{[(2S,11S)-11-[(3S)-3-acetamido-3-formamidopropanoic acid]-12-oxo-1-azatricyclo[6.4.1.0^{4,13}]trideca-4(13),5,7-trien-2-yl]formamido}-4-oxopentanoic acid], the pIC50 was 8.52.
